As a reminder, the EC50 is the concentration that produces a half-maximal response.

Experiment [1] is described as follows: Inhibition of HCV genotype 1a NS5B RNA dependent RNA polymerase infected in human HuH7 replicon cells after 3 days by luciferase reporter gene assay. A general note: A replicon is a self-replicating genome or part of one, used to study replication in cells.
Experiment [2] is described as follows: Inhibition of HCV genotype 1b NS5B RNA dependent RNA polymerase infected in human HuH7 replicon cells after 3 days by luciferase reporter gene assay.
The nature of experiment [3]: Inhibition of HCV genotype 2a JFH1 NS5B RNA dependent RNA polymerase infected in human HuH7 replicon cells after 3 days by luciferase reporter gene assay.
Experiment [4] is described as follows: Inhibition of HCV genotype 1b NS5B RNA dependent RNA polymerase C316N mutant infected in human HuH7 replicon cells after 3 days by luciferase reporter gene assay.

For the molecule `CCNc1cc2oc(-c3ccc(F)cc3)c(C(=O)NC)c2cc1-c1ccc(OC)c(C(=O)NC2(c3ncccn3)CC2)c1`, the EC50 in experiment [1] is 2.3 nM; in experiment [2], 1.2 nM; in experiment [3] it was 12 nM; in experiment [4], 3.6 nM.

Molecule `CCN(C(=O)C(F)(F)F)c1cc2oc(-c3ccc(F)cc3)c(C(=O)NC)c2cc1-c1ccc(OC)c(C(=O)NC2(c3ncccn3)CC2)c1` showed an EC50 in experiment [3] of 20 nM.

Consider `CNC(=O)c1c(-c2ccc(F)cc2)oc2ccc(-c3cccc(C(=O)NC4(c5ccccn5)CC4)c3)cc12`, for which the EC50 in experiment [1] worked out at 36 nM; in experiment [2] it was 3.8 nM; in experiment [3], 515 nM; in experiment [4] it was 75 nM.

As for `CNC(=O)c1c(-c2ccc(F)cc2)oc2cc(N(CCO)S(C)(=O)=O)c(-c3cccc(C(=O)NC4(c5ccccn5)CC4)c3)cc12`, the EC50 was determined as 35 nM in experiment [1], 52 nM in experiment [2], 22 nM in experiment [3] and 385 nM in experiment [4].

For the molecule `CNC(=O)c1c(-c2ccc(F)cc2)oc2cc(N(CCO)S(C)(=O)=O)c(-c3cccc(C(=O)NC4(c5ccccc5)CC4)c3)cc12`, the EC50 is 5.7 nM in experiment [1], 6.2 nM in experiment [2], 8.6 nM in experiment [3] and 64 nM in experiment [4].

With `CCN(c1cc2oc(-c3ccc(F)cc3)c(C(=O)NC)c2cc1-c1cccc(C(=O)NC2(c3ncccn3)CC2)c1)S(C)(=O)=O`, the EC50 came out at 7.7 nM in experiment [1], 8.8 nM in experiment [2], 5.4 nM in experiment [3] and 44 nM in experiment [4].

Take `CCN(c1cc2oc(-c3ccc(F)cc3)c(C(=O)NC)c2cc1-c1ccc(OC)c(C(=O)NC2(c3ncccn3)CC2)c1)S(C)(=O)=O`: the EC50 in experiment [3] was 13 nM.

As to `CCN(C(=O)OC)c1cc2oc(-c3ccc(F)cc3)c(C(=O)NC)c2cc1-c1ccc(OC)c(C(=O)NC2(c3ncccn3)CC2)c1`, the EC50 in experiment [3] is 15 nM.

`CCN(C(C)=O)c1cc2oc(-c3ccc(F)cc3)c(C(=O)NC)c2cc1-c1ccc(OC)c(C(=O)NC2(c3ncccn3)CC2)c1` returned an EC50 in experiment [3] of 35 nM.

Consider `CCN(c1cc2oc(-c3ccc(F)cc3)c(C(=O)NC)c2cc1-c1cc(Cl)c(OC)c(C(=O)NC2(c3ncccn3)CC2)c1)S(C)(=O)=O`, for which, in experiment [3], the EC50 worked out at 6.6 nM.

Take `CCN(c1cc2oc(-c3ccc(F)cc3)c(C(=O)NC)c2cc1-c1cc(F)c(F)c(C(=O)NC2(c3ncccn3)CC2)c1)S(C)(=O)=O`: the EC50 in experiment [3] was found to be 9 nM.

Regarding `CCN(c1cc2oc(-c3ccc(F)cc3)c(C(=O)NC)c2cc1-c1cc(C)c(OC)c(C(=O)NC2(c3ncccn3)CC2)c1)S(C)(=O)=O`, in experiment [3], the EC50 is 16 nM.

As to `CCN(C(=O)N(C)C)c1cc2oc(-c3ccc(F)cc3)c(C(=O)NC)c2cc1-c1ccc(OC)c(C(=O)NC2(c3ncccn3)CC2)c1`, in experiment [3], the EC50 is 165 nM.

In turn, `CCN(c1cc2oc(-c3ccc(F)cc3)c(C(=O)NC)c2cc1-c1cc(F)c(OC)c(C(=O)NC2(c3ncccn3)CC2)c1)S(C)(=O)=O` came in with an EC50 in experiment [3] of 8.8 nM.

The record behind these values is BindingDB's records for doi:10.1021/acsmedchemlett.8b00379 (Bristol-Myers Squibb Research and Development, 2018).
